{
  "source": "patent US5242916A",
  "about": "“Method for treatment of neurodegenerative diseases” (R. J. Reynolds Tobacco Company, priority 1992, dated 1993)",
  "key": {"[1]": {"target": "high affinity nicotinic receptors", "experiment": "Inhibition of L-[3H]nicotine binding to mouse brain membrane preparations", "design": "species or system Mice (DBA strain)", "conditions": "mouse brain membranes, 2 hr at 4° C., 10 nM L-[3H]nicotine, Ki calculated from IC50 by the method of Cheng et al.", "method": "Mice (DBA strain) were maintained on a 12 hour light/dark cycle and were allowed free access to water and food supplied by Wayne Lab Blox, Madison, Wis. Animals used in the present studies were 60 to 90 days of age and weighed 20 to 25 g. Brain membrane preparations were obtained from pooled brain tissue of both males and females.\nMice were killed by cervical dislocation. Brains were removed and placed on an ice-cold platform. […] Protein was determined by the method of Lowry, et al., J. Biol. Chem., Vol. 193, pp. 265-275 (1951), using bovine serum albumin as the standard.\nThe binding of L-[^3 H]nicotine was measured using a modification of the method of Romano, et al., Science, Vol. 210, pp. 647-650 (1980) as described previously by Marks, et al., Mol. Pharmacol., Vol. 30, pp. 427-436 (1986). The binding of L-[^3 H]nicotine was measured using a 2 hr. incubation at 4° C. […] Nonspecific binding was determined by inclusion of 10 μM nonradioactive nicotine in the incubations. The inhibition of L-[^3 H]nicotine binding by test compounds was determined by including one of eight different concentrations of the test compound in the incubation. […] Inhibition constants (Ki values) were calculated from the IC50 values using the method of Cheng, et al., Biochem. Pharmacol., Vol. 22, pp. 3099-3108 (1973). […]"}, "[2]": {"tested_on": "synaptosomes from the striatal area of rat brain", "experiment": "[3H]-Dopamine release from rat striatal synaptosomes", "assay_type": "biochemical, Sprague-Dawley rats", "conditions": "Percent release relative to (S)(-)nicotine at equal concentration, 0.2 ml of a 10 μM solution of ligand", "method": "Dopamine release was measured by preparing synaptosomes from the striatal area of rat brain obtained from Sprague-Dawley rats generally according to the procedures set forth by Nagy, et al., J. Neurochem., Vol. 43, pp. 1114-1123 (1984). Striata from 4 rats were homogenized in 2 ml of 0.32M sucrose buffered with 5 mM HEPES (pH 7.5), using a glass-teflon tissue grinder. The homogenate was diluted to 5 ml with additional homogenization solution and centrifuged at 1000×g for 10 min. This procedure was repeated on the new pellet and the resulting supernatant was centrifuged at 12,000×g for 20 min. […] Using this method, 30 to 90 percent of the dopamine was taken up into the synaptosomes, as determined by scintillation counting following filtration through glass fiber filters soaked with 0.5 percent polyethyleneimine. […] After the addition of a 0.2 ml of a 10 μM solution of ligand, the perfusate was collected into scintillation vials at 1 min. intervals and the dopamine released was quantified by scintillation counting. Peaks of radioactivity released above background were summed and the average basal release during that time was subtracted from the total. Release was expressed as a percentage of release obtained with an equal concentration of (S)-(-)-nicotine."}},
  "data": [
    {"compound": "CN1CC2CC(C1)c1cccc(=O)n1C2", "note": "(stereo not shown) [N-methylcytisine]", "values": [
      {"measurement": "Ki", "setting": "[1]", "result": 36, "unit": "nM"},
      {"measurement": "Dopamine Release", "setting": "[2]", "result": 29, "unit": "%"}
    ]},
    {"compound": "O=c1cccc2n1C[C@@H]1CNC[C@H]2C1", "note": "[cytisine]", "values": [
      {"measurement": "Ki", "setting": "[1]", "result": 0.4, "unit": "nM"},
      {"measurement": "Dopamine Release", "setting": "[2]", "result": 82, "unit": "%"}
    ]}
  ]
}
